Results as given in ChEMBL document CHEMBL5291721, “A preclinical secondary pharmacology resource illuminates target-adverse drug reaction associations of marketed drugs” (Nat Commun, 2023).

What was measured:
Vasopressin V1a receptor = Vasopressin V1a receptor (Homo sapiens, UniProt P37288)
Endothelin-1 receptor = biological target: T1, Endothelin-1 receptor (Homo sapiens, UniProt P25101)
T1 sequence (P25101 whole entry): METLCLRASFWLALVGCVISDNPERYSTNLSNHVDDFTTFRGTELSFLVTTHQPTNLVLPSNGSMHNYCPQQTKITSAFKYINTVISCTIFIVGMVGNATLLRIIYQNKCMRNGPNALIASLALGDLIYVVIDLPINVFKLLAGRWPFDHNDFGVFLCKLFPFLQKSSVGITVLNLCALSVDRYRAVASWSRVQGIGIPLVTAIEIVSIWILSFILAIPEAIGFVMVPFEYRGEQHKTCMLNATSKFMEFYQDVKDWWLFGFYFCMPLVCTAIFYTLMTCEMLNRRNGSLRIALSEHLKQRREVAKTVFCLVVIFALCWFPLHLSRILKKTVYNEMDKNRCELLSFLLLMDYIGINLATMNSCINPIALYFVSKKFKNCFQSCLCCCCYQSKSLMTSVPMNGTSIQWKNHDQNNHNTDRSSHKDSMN

Melanocortin receptor 4 = Melanocortin receptor 4 (Homo sapiens, UniProt P32245)
Chain of Melanocortin receptor 4 (P32245 whole entry): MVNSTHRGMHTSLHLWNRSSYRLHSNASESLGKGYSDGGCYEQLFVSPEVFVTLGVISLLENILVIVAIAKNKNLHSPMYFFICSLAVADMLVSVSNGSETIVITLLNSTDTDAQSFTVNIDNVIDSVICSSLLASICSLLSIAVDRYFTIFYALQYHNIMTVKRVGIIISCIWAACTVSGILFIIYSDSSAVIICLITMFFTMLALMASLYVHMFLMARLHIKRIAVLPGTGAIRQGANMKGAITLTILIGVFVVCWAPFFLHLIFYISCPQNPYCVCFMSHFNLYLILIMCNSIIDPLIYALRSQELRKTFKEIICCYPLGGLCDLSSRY

[1] = biological target: cGMP-inhibited 3',5'-cyclic phosphodiesterase 3A (Homo sapiens, UniProt Q14432); format: functional
Chain of cGMP-inhibited 3',5'-cyclic phosphodiesterase 3A (Q14432 whole entry): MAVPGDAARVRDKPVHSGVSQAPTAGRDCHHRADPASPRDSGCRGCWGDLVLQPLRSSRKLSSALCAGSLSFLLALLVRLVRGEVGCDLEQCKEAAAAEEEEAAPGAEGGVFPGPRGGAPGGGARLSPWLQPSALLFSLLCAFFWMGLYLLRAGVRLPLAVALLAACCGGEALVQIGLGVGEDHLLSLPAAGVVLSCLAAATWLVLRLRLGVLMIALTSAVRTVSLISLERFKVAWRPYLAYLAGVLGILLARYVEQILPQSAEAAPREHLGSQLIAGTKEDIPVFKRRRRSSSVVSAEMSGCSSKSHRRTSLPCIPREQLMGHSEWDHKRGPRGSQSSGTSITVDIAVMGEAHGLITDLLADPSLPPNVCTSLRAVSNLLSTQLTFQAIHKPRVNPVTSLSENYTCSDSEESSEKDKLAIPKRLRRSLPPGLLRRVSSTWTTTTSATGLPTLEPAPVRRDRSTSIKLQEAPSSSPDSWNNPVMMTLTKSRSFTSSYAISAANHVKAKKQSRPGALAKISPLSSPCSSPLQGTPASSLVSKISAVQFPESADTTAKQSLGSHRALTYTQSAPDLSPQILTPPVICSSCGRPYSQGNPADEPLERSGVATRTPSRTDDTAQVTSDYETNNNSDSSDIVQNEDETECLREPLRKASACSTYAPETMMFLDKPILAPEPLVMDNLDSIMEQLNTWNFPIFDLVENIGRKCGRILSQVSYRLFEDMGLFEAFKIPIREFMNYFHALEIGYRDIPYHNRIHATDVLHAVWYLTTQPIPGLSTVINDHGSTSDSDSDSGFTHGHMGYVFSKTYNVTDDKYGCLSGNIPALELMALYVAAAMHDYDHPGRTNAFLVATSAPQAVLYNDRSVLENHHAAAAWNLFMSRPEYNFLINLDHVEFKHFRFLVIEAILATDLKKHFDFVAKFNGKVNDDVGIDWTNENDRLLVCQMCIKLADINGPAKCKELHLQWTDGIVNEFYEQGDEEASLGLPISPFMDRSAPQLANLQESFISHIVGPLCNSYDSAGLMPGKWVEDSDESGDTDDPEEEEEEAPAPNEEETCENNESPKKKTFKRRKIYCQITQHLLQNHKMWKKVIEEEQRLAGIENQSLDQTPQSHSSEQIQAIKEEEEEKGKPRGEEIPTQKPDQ

[2] = biological target: T2, Alpha-1A adrenergic receptor (Homo sapiens, UniProt P35348); format: functional, cell-based
T2 sequence (P35348 whole entry): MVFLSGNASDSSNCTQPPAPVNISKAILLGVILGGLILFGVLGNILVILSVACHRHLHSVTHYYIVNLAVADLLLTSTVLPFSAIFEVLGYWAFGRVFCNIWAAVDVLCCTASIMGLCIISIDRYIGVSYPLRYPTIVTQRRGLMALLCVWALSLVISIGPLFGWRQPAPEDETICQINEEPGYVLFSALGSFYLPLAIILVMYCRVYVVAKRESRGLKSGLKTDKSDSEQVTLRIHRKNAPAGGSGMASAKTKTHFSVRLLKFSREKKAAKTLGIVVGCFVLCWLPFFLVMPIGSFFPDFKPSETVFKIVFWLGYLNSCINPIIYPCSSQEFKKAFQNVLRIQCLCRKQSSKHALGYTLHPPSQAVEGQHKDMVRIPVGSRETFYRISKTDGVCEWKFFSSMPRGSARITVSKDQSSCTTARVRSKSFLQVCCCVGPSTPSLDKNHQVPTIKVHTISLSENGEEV

Adenosine receptor A3 = biological target: T3, Adenosine receptor A3 (Homo sapiens, UniProt P0DMS8)
T3 sequence (P0DMS8 whole entry): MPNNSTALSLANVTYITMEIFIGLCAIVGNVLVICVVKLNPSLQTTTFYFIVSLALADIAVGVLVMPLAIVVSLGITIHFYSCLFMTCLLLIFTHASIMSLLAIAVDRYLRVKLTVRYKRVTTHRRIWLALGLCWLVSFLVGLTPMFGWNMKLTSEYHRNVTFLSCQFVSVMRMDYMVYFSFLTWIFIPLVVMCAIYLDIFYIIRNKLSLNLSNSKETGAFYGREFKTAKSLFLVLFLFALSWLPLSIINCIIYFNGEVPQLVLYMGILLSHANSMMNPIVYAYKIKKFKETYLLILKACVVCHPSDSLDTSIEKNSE

[3] = biological target: Prostaglandin G/H synthase 1 (Homo sapiens, UniProt P23219); format: functional
Chain of Prostaglandin G/H synthase 1 (P23219 whole entry): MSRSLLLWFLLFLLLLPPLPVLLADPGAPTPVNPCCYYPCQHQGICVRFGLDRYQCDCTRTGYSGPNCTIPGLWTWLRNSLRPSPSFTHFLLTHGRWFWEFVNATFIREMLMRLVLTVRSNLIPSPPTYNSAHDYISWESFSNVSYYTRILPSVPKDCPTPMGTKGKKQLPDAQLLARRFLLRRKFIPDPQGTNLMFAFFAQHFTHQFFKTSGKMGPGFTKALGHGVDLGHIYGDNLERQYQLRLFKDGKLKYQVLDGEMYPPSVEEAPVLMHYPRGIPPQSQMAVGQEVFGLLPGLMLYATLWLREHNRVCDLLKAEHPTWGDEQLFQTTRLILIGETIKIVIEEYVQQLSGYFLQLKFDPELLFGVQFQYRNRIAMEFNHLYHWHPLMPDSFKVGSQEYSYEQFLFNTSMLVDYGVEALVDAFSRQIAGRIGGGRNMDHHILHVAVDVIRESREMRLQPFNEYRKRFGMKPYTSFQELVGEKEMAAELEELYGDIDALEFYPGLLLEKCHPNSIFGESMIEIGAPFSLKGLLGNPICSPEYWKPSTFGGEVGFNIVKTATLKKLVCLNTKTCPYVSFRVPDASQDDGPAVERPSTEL

Progesterone receptor = biological target: T4, Progesterone receptor (Homo sapiens, UniProt P06401)
T4 sequence (P06401 whole entry): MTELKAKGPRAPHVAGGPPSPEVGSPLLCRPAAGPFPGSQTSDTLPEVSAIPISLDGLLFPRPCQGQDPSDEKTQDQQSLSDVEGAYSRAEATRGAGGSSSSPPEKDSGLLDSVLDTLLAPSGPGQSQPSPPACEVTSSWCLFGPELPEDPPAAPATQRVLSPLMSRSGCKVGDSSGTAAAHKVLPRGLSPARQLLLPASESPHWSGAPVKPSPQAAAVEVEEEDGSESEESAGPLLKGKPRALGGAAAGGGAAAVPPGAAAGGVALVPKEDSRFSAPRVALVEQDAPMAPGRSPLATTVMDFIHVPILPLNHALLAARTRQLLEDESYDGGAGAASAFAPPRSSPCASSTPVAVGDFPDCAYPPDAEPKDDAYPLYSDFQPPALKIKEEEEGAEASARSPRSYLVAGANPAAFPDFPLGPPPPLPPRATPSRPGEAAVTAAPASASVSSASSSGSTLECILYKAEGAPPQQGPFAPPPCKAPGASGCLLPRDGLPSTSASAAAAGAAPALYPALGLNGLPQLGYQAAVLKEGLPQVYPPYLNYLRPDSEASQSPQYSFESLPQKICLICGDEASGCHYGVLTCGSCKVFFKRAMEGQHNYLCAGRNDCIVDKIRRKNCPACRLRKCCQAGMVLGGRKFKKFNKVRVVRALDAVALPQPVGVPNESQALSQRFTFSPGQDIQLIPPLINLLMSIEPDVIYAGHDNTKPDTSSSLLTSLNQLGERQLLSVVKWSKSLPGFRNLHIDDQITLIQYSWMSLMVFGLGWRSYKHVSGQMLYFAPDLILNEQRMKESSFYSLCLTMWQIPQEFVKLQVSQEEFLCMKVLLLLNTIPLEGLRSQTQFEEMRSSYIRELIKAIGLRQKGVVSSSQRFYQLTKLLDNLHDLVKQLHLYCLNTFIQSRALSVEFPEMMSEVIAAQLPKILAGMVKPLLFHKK
Also: assay procedure not described here.

Chain of Vasopressin V1a receptor (P37288 whole entry): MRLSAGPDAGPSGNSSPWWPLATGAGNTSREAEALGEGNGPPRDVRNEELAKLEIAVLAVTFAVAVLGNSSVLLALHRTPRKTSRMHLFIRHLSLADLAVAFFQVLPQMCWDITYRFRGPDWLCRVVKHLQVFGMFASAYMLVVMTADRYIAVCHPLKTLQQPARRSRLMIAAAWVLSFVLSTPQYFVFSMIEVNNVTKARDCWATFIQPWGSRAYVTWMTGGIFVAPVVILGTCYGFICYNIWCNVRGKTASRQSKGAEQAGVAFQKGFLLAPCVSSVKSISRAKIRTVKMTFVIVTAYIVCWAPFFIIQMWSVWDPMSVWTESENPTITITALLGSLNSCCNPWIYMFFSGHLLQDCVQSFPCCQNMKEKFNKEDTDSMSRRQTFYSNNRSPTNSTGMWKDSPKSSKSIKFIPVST

Structure (SMILES)	AC50 (Vasopressin V1a receptor) [µM]	AC50 (Endothelin-1 receptor) [µM]	AC50 (Melanocortin receptor 4) [µM]	other results
COCC1=C(C(=O)O)N2C(=O)[C@@H](NC(=O)/C(=N\OC)c3csc(N)n3)[C@H]2SC1 [CEFPODOXIME]	> 30	> 30	–	–
Clc1ccc(C(Cn2ccnc2)OCc2ccsc2Cl)c(Cl)c1 (stereo not given) [TIOCONAZOLE]	> 30	–	> 30	–
Clc1ccc2c(N3CCN(CCCN4CCN(c5ccnc6cc(Cl)ccc56)CC4)CC3)ccnc2c1 [PIPERAQUINE]	> 30	> 30	–	–
CC(=O)N[C@@H](CS)C(=O)O [ACETYLCYSTEINE]	> 30	> 30	–	–
C[C@]12CCC(=O)C(O)=C1CC[C@@H]1[C@@H]2CC[C@]2(C)C(=O)CC[C@@H]12 [FORMESTANE]	> 30	> 30	–	–
COc1ccc(CN(CCN(C)C)c2ccccn2)cc1 [PYRILAMINE]	–	–	–	AC50 [1]: > 30 µM; AC50 [2]: > 30 µM; AC50 (Adenosine receptor A3): > 30 µM; AC50 [3]: > 30 µM; AC50 (Progesterone receptor): > 30 µM
CCC1(c2ccccc2)CCC(=O)NC1=O (stereo not given) [GLUTETHIMIDE]	> 10	–	> 10	–
Cc1cc2cc3c(C)cc(=O)oc3c(C)c2o1 [TRIOXSALEN]	–	–	> 10	–
CCCCC(=O)O[C@]1(C(=O)CO)[C@@H](C)C[C@H]2[C@@H]3CCC4=CC(=O)C=C[C@]4(C)[C@@]3(F)[C@@H](O)C[C@@]21C [BETAMETHASONE VALERATE]	–	–	> 30	–
Cc1cc(NC(=O)C2=C(O)c3ccccc3S(=O)(=O)N2C)no1 [ISOXICAM]	–	–	–	AC50 [1]: > 30 µM; AC50 [2]: > 30 µM; AC50 (Adenosine receptor A3): > 30 µM; AC50 [3]: > 30 µM; AC50 (Progesterone receptor): > 30 µM
CCCC(CCC)C(N)=O [VALPROMIDE]	–	–	> 30	–
Cc1cc(C(C)(C)C)cc(C)c1CC1=NCCN1 [XYLOMETAZOLINE]	> 30	> 30	–	AC50 [2]: 0.0003 µM
CCCCC1C(=O)N(c2ccccc2)N(c2ccccc2)C1=O [PHENYLBUTAZONE]	> 30	–	> 30	–
CC(C)(C)C(=O)OCC(=O)[C@H]1CC[C@H]2[C@@H]3CCC4=CC(=O)CC[C@]4(C)[C@H]3CC[C@]12C [DESOXYCORTICOSTERONE PIVALATE]	> 10	–	> 10	–
C/N=C(\NC)NCc1ccccc1 [BETHANIDINE]	> 30	> 30	–	–
CC(C(=O)O)c1ccc(CC2CCCC2=O)cc1 (stereo not given) [LOXOPROFEN]	–	> 30	–	–
Cc1c(N(C)CS(=O)(=O)O)c(=O)n(-c2ccccc2)n1C [METAMIZOLE]	–	–	–	AC50 [1]: > 30 µM; AC50 [2]: > 30 µM; AC50 (Adenosine receptor A3): > 30 µM; AC50 [3]: > 30 µM; AC50 (Progesterone receptor): > 30 µM
CN(C)CCCNc1c2ccccc2nc2cccc([N+](=O)[O-])c12 [NITRACRINE]	> 30	> 30	–	–
CNC1=Nc2ccc(Cl)cc2C(c2ccccc2)=[N+]([O-])C1 [CHLORDIAZEPOXIDE]	–	–	> 30	–
CCC(C)C1(CC)C(=O)NC(=O)NC1=O (stereo not given) [BUTABARBITAL]	> 30	> 30	–	–
CCC(=O)O[C@]1(C(=O)CCl)[C@@H](C)C[C@H]2[C@@H]3C[C@H](F)C4=CC(=O)C=C[C@]4(C)[C@@]3(F)[C@@H](O)C[C@@]21C [HALOBETASOL PROPIONATE]	–	–	–	AC50 [1]: > 30 µM; AC50 [2]: > 30 µM; AC50 (Adenosine receptor A3): 19.7 µM; AC50 [3]: > 30 µM; AC50 (Progesterone receptor): 0.003 µM
